Results reported in patent publication US10967047B2, “Mitochondrial antiviral-signaling (MAVS) polypeptides and detection and use thereof” (University of Vermont and State Agricultural College, priority 2016, dated 2021).

What was measured:
[1] = system: MEFs; experiment: Mitochondrial transmembrane potential (ΔΨm) by FACS using TMRE in MEFs; type: cell-based, mouse
Description: ROS generation was measured using oxidized, green-fluorescent dihydrocalcein acetoxymethylester (DHC-AM) (Life Technologies) and flow cytometry. Single-cell suspensions of MEFs were prepared and ROS was assessed with 5 μM DHC-AM staining in culture medium for 30 minutes (A. Rohnstock et al., (2007) Toxicol in Vitro 21, 1552-1562). 25 nM of cationic cell permeant dye tetramethylrhodamine ethylester (TMRE; Life Technologies) (R. C. Scaduto, Jr. et al., (1999), Biophysical journal 76, 469-477) were used to measure ΔΨm. Additionally, MitoSox Red and MitoTracker Deep Red (Life Technologies) were used to measure mitochondrial ROS and mitochondrial mass, respectively. Flow cytometry was carried out on an LSRII (BD Biosciences), and FlowJo software (Tree Star) was used for analysis.

[2] = system: MAVS; experiment: MAVS oligomerization in human PBMC and plasma (semi-denaturing agarose gel electrophoresis); type: cell-based
Description: MAVS-deficient and matching WT MEFs, gift of Z. J. Chen (Z. J. Chen et al. (2005) Cell 122, 669-682), were maintained in Dulbecco's modified Eagle's medium (DMEM) (Hyclone), supplemented with 10% heat-inactivated fetal calf serum (FCS) (Hyclone), 100 mM L-glutamine (Cellgro Mediatech), and 10,000 units/mL penicillin/10 mg/mL streptomycin sulfate (Life Technologies). C57BL6 or B6; 129-Mavstm1Zjc/J mice (The Jackson Laboratory, Bar Harbor, Me.) were maintained at the University of Vermont under a protocol approved by the Institutional Animal Care and Use Committee. Murine BMDCs were prepared as described by Inaba et al. (K. Inaba et al., (1992) Journal of Experimental Medicine 176, 1693-1702). In brief, cells derived from femur bone marrow were cultured at a density of 5×10^5/mL in 10-cm plates in RPMI 1640 (HyClone), supplemented with 5% heat-inactivated FCS, 100 mmol L-glutamine, 100 mmol sodium pyruvate, 10,000 units/mL penicillin/10 mg/mL streptomycin sulfate, 5×10^−5 mol 2-mercaptoethanol (Sigma, St. Louis, Mo.), and 10 μg/mL GM-CSF (Life Technologies). Human subjects were enrolled under a protocol approved by the University of Vermont Institutional Review Board. Samples from 17 SLE patients fulfilling the American College of Rheumatology diagnostic criteria were studied (E. M. Tan et al., (1982) Arthritis and Rheumatism 25, 1271-1277). 16 out of 17 patients were female, and the age of study participants was 47±3. The disease activity was assessed by the SLE disease activity index (SLEDAI) scores, ranging from 0 to 10 (C. Bombardier et al., (1992) Arthritis and Rheumatism 35, 630-640). Upon informed consent, primary human PBMCs were obtained from heparinized whole-blood samples from SLE patients. Control PBMCs were generated from age-, sex-, and ethnicity-matched healthy subjects. PBMCs were isolated using standard Ficoll gradient centrifugation as previously described (R. Mallone et al., (2011) Clin. and Exp. Immunol. 163, 33-49). Cells were either used immediately to prepare lysates for immunoblotting or cultured at a density of 5×10^5/mL in a 12-well culture plate with RPMI 1640 (HyClone), supplemented with 5% heat-inactivated FCS, 100 mmol L-glutamine, 100 mmol sodium pyruvate, and 10,000 units/mL penicillin/10 mg/mL streptomycin sulfate. Enriched monocytes from PBMCs were used to prepare hDCs using negative magnetic bead selection (Miltenyi), and were subsequently cultivated for 6 d in 10 μg/mL GM-CSF and 500 U/mL IL-4. All cells were maintained in a humidified chamber at 37° C. and 5% CO2.
SDD-AGE was performed according to a published protocol with minor modifications (Alberti et al., (2009) Cell 137, 146-158). In brief, mitochondria were resuspended in sample buffer (0.5×TBE, 10% glycerol, 2% SDS, and 0.0025% bromophenol blue) and loaded onto a vertical 1.5% agarose gel. After electrophoresis in the running buffer (1×TBE and 0.1% SDS) for 35 min with a constant voltage of 75 V at 4° C., proteins were transferred to PVDF membranes using a Trans-Blot Turbo Transfer System (BioRad) for immunoblotting.
PVDF membranes were blocked in 5% solution of nonfat powdered milk in Tris-buffered saline. Antibodies used were specific for MAVS and Actin (Santa Cruz); RIPK1 and TRAF2 (BD Biosciences); TANK, TRADD, RIG-I, and GAPDH (Cell Signaling); MDAS and COX4 (Abcam), Alexa 488 (Life Technologies), and IRF3 (Thermo Fisher), respectively. […] Chemiluminescence was detected and recorded using a Biorad Chemidoc instrument. […]

Row | Compound | mitochondrial hyperpolarization (ΔΨm) with MitoQ ([1]; MEF, GOx+/−MitoQ and SINV+/−MitoQ, TMRE (FIG. 3C)) | GOx-induced MAVS oligomerization in PBMCs after pretreatment ([2]; healthy-donor PBMCs pretreated with MitoQ or grown in presence of β-Me, then GOx (FIG. 4A)) | ΔΨm induced by the substance ([1]; MAVS-WT MEFs, not observed in MAVS-KO (FIG. 1B, 2D)) | induction of MAVS oligomerization in PBMCs ([2]; healthy-donor PBMCs treated with GOx (FIG. 4A))
1 | COC1=C(OC)C(=O)C(CCCCCCCCCC[P+](c2ccccc2)(c2ccccc2)c2ccccc2)=C(C)C1=O.CS(=O)(=O)[O-] [MitoQ, [10-(4,5-Dimethoxy-2-methyl-3,6-dioxo-1,4-cyclohexadien-1-yl)decyl](triphenyl)phosphonium methanesulfonate] | decreased mitochondrial hyperpolarization | MAVS oligomerization did not occur | – | –
2 | glucose oxidase [GOx] | – | – | increased ΔΨm | induced pronounced MAVS oligomerization
